Values belong to the molecule of their own block, whether it stands above or below them. Non-standard residues stand in square brackets, D forms with d. Residues, ends and D or L forms follow the SMILES beside them. *: point of attachment. Desaminotyrosyl = O=C(CCc1ccc(O)cc1)*; NMeY = CN[C@@H](Cc1ccc(O)cc1)C(=O)O; Agmatine = N=C(N)NCCCCN*; Nle = CCCC[C@H](N)C(=O)O; Orn = NCCC[C@H](N)C(=O)O; Abu = CC[C@H](N)C(=O)O; GABA = NCCCC(=O)O
Experiments:
[1] = target: T1, GHRH receptor (human pituitary membrane homogenates) (Homo sapiens, UniProt Q02643); assay: GHRH receptor binding, ligand competition with 125I-labeled JV-1-42 (Table 5); conditions: for Relative affinitiy (Binding potency) vs GHRH: GHRH(1-29) = 1; for Relative affinitiy (Binding potency) vs JI-38: JI-38 = 1
T1 sequence (Q02643 23-423): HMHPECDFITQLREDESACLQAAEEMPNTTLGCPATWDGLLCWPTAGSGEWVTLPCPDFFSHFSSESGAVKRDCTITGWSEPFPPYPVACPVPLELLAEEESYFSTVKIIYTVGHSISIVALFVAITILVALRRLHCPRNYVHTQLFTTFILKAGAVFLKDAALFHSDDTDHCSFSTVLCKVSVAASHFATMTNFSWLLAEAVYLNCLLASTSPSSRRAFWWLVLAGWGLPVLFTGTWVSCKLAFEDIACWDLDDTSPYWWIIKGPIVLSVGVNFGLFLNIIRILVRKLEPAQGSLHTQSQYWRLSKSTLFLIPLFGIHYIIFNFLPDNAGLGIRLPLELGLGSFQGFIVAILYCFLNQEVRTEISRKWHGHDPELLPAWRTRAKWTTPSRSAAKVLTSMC

[2] = target: T1, GHRH receptor (human pituitary membrane homogenates); assay: GHRH receptor binding, ligand competition with 125I-labeled JV-1-42 (Table 7); set-up: Normal human pituitaries were purchased from the National Hormone and Peptide Program; tissue National Hormone and Peptide Program (A. F. Parlow, Harbor-UCLA Medical Center, Torrance, Calif.); host or cells: normal human pituitary, membrane fraction / homogenate; conditions: JI-38 = 1
[3] = test system: GH level; assay: In vivo endocrine activity (GH release), subcutaneous administration; conditions: rat, s.c.
Experimental: Subcutaneous Administration. Adult male rats were used and anesthetized with pentobarbital (6 mg/100 g, b.w.), by i.p. injection. […] Blood samples were taken from the jugular vein 5, 15 and/or 30 minutes after the injection. The blood samples were centrifuged, plasma was removed and the GH level was measured by ELISA. The results are summarized in terms of potency in Table 9.

[4] = test system: rat pituitary cells; assay: GH release in superfused rat pituitary cell system; type: cell-based; conditions: 1 nM; for GH Response (ng/ml) Average / GH Response (ng/ml) 1 / GH Response (ng/ml) 2 / GH Response (ng/ml) 3: 3-min pulse; for GH Response (ng/ml) Average: average of runs; for GH Response (ng/ml) 1: run 1; for GH Response (ng/ml) 2: run 2; for GH Response (ng/ml) 3: run 3
Experimental: Growth hormone releasing activity. Growth hormone releasing was assayed by using a superfused rat pituitary cell system as described in S. Vigh and A. V. Schally, Peptides 5, Suppl: 241-347, 1984. The new synthetic peptide analog of hGHRH P20356 and JI-38 (as control) were administered for 3 minutes (1 mL perfusate) at 1 nM concentration as shown below. Fractions of 1 ml are collected and the GH content in each was determined by ELISA.
Pituitary cells from 2 male rats were used for each channel of the superfusion system. The cells were exposed to 3-min pulses of the new GHRH agonists or to JI-38 as standard every 30 min. Outflowing samples of each channel (1 ml) were collected every 3 min, and GH levels were determined by ELISA.

[5] = target: T1, GHRH receptor (human pituitary membrane homogenates); assay: GHRH receptor binding, ligand competition with 125I-labeled [His1,Nle27]hGHRH(1-32)NH2 (Table 6); conditions: GHRH(1-29) = 1
[6] = fraction 1 (P-20356) / 21 (JI-38)
[7] = fraction 2 (P-20356) / 22 (JI-38)
[8] = fraction 3 (P-20356) / 23 (JI-38)
[9] = fraction 4 (P-20356) / 24 (JI-38)
[10] = fraction 5 (P-20356) / 25 (JI-38)

Relative affinitiy (Binding potency) vs GHRH [1]: 81.2 | Relative affinitiy (Binding potency) vs JI-38 [1]: 34.2 | Relative affinitiy (Binding potency) vs JI-38 [2]: 5.06
SMILES: CCCC[C@H](NC(=O)[C@@H](NC(=O)[C@H](CC(=O)O)NC(=O)[C@H](CCC(N)=O)NC(=O)[C@H](CC(C)C)NC(=O)[C@H](CC(C)C)NC(=O)[C@H](CCCN)NC(=O)[C@H](CCCNC(=N)N)NC(=O)[C@H](C)NC(=O)[C@H](CO)NC(=O)[C@H](CC(C)C)NC(=O)[C@H](CCC(N)=O)NC(=O)[C@H](CC)NC(=O)[C@H](CC(C)C)NC(=O)[C@@H](NC(=O)[C@H](CCCN)NC(=O)[C@H](CCCNC(=N)N)NC(=O)[C@H](Cc1ccc(O)cc1)NC(=O)[C@H](CO)NC(=O)[C@H](CC(N)=O)NC(=O)[C@@H](NC(=O)[C@H](Cc1ccccc1)NC(=O)[C@@H](NC(=O)[C@H](C)NC(=O)[C@H](CC(=O)O)NC(=O)[C@@H](C)NC(=O)CCc1ccc(O)cc1)[C@@H](C)CC)[C@@H](C)O)C(C)C)[C@@H](C)CC)C(=O)N[C@@H](CO)C(=O)N[C@@H](CCCNC(=N)N)C(=O)N[C@@H](CCC(N)=O)C(=O)NCCCC(N)=O [Peptide P-29702, [Dat^1, D-Ala^2, Orn^12, Abu^15, Orn^21, Nle^27, Gln-Gab^30]hGHRH(1-30)NH2] (Desaminotyrosyl-[dA]DAIFTNSYR[Orn]VL[Abu]QLSAR[Orn]LLQDI[Nle]SRQ[GABA]-NH2)

SMILES: CCCC[C@H](NC(=O)[C@@H](NC(=O)[C@H](CC(=O)O)NC(=O)[C@H](CCC(N)=O)NC(=O)[C@H](CC(C)C)NC(=O)[C@H](CC(C)C)NC(=O)[C@H](CCCN)NC(=O)[C@H](CCCNC(=N)N)NC(=O)[C@H](C)NC(=O)[C@H](CO)NC(=O)[C@H](CC(C)C)NC(=O)[C@H](CCC(N)=O)NC(=O)[C@H](CC)NC(=O)[C@H](CC(C)C)NC(=O)[C@@H](NC(=O)[C@H](CCCN)NC(=O)[C@H](CCCNC(=N)N)NC(=O)[C@H](Cc1ccc(O)cc1)NC(=O)[C@H](CO)NC(=O)[C@H](CCC(N)=O)NC(=O)[C@@H](NC(=O)[C@H](Cc1ccccc1)NC(=O)[C@@H](NC(=O)[C@H](C)NC(=O)[C@H](CC(=O)O)NC(=O)[C@@H](C)NC(=O)CCc1ccc(O)cc1)[C@@H](C)CC)[C@@H](C)O)C(C)C)[C@@H](C)CC)C(=O)N[C@@H](CC(=O)O)C(=O)NCCCCNC(=N)N [Peptide P-20350, [Dat^1, D-Ala^2, Gln^8, Orn^12, Abu^15, Orn^21, Nle^27, Asp^28, Agm^29]hGHRH(1-29)] (Desaminotyrosyl-[dA]DAIFTQSYR[Orn]VL[Abu]QLSAR[Orn]LLQDI[Nle]D-Agmatine)
Stimulation of growth hormone levels after s.c. administration (comparison in words) [3]: stimulated greater growth hormone levels than hGHRH or JI-38 | Relative affinitiy (Binding potency) vs GHRH [1]: 101.5 | Relative affinitiy (Binding potency) vs JI-38 [1]: 42.7 | Relative affinitiy (Binding potency) vs JI-38 [2]: 8.37

SMILES: CCCC[C@H](NC(=O)[C@@H](NC(=O)[C@H](CC(=O)O)NC(=O)[C@H](CCC(N)=O)NC(=O)[C@H](CC(C)C)NC(=O)[C@H](CC(C)C)NC(=O)[C@H](CCCN)NC(=O)[C@H](CCCNC(=N)N)NC(=O)[C@H](C)NC(=O)[C@H](CO)NC(=O)[C@H](CC(C)C)NC(=O)[C@H](CCC(N)=O)NC(=O)[C@H](CC)NC(=O)[C@H](CC(C)C)NC(=O)[C@@H](NC(=O)[C@H](CCCN)NC(=O)[C@H](CCCNC(=N)N)NC(=O)[C@H](Cc1ccc(O)cc1)NC(=O)[C@H](CO)NC(=O)[C@H](CCC(N)=O)NC(=O)[C@@H](NC(=O)[C@H](Cc1ccccc1)NC(=O)[C@@H](NC(=O)[C@H](C)NC(=O)[C@H](CC(=O)O)NC(=O)[C@H](C)NC(=O)[C@H](Cc1ccc(O)cc1)NC)[C@@H](C)CC)[C@@H](C)O)C(C)C)[C@@H](C)CC)C(=O)N[C@@H](CC(=O)O)C(=O)NCCCCNC(=N)N [Peptide P-20356, [N—Me-Tyr^1, Gln^8, Orn^12, Abu^15, Orn^21, Nle^27, Asp^28, Agm^29]hGHRH(1-29)] (H-[NMeY]ADAIFTQSYR[Orn]VL[Abu]QLSAR[Orn]LLQDI[Nle]D-Agmatine)
GH Response (ng/ml) Average [4, 6]: 52.45 ng/mL | GH Response (ng/ml) Average [4, 7]: 337.48 ng/mL | GH Response (ng/ml) Average [4, 8]: 556.46 ng/mL | GH Response (ng/ml) Average [4, 9]: 334.99 ng/mL | GH Response (ng/ml) Average [4, 10]: 197.91 ng/mL | GH Response (ng/ml) 1 [4, 6]: 49.98 ng/mL | GH Response (ng/ml) 1 [4, 7]: 310.58 ng/mL | GH Response (ng/ml) 1 [4, 8]: 491.01 ng/mL | GH Response (ng/ml) 1 [4, 9]: 399.95 ng/mL | GH Response (ng/ml) 1 [4, 10]: 200.64 ng/mL | GH Response (ng/ml) 2 [4, 6]: 54.99 ng/mL | GH Response (ng/ml) 2 [4, 7]: 325.76 ng/mL | GH Response (ng/ml) 2 [4, 8]: 602.1 ng/mL | GH Response (ng/ml) 2 [4, 9]: 270.02 ng/mL | GH Response (ng/ml) 2 [4, 10]: 195.18 ng/mL | GH Response (ng/ml) 3 ([4]; fraction 1): 52.37 ng/mL | GH Response (ng/ml) 3 ([4]; fraction 2): 376.11 ng/mL | GH Response (ng/ml) 3 ([4]; fraction 3): 576.26 ng/mL | GH-releasing potency in vitro relative to JI-38 ([4]; superfused rat pituitary cells): about 3 times | Stimulation of growth hormone levels after s.c. administration (comparison in words) [3]: stimulated greater growth hormone levels than hGHRH or JI-38 | Relative affinitiy (Binding potency) vs GHRH [1]: 406.0 | Relative affinitiy (Binding potency) vs JI-38 [1]: 171 | Relative affinitiy (Binding potency) vs JI-38 [2]: 16.11

Relative affinitiy (Binding potency) vs GHRH [1]: 1 | Relative affinitiy (Binding potency) vs GHRH [5]: 1
SMILES: CC[C@H](C)[C@H](NC(=O)[C@H](C)NC(=O)[C@H](CC(=O)O)NC(=O)[C@H](C)NC(=O)[C@@H](N)Cc1ccc(O)cc1)C(=O)N[C@@H](Cc1ccccc1)C(=O)N[C@H](C(=O)N[C@@H](CC(N)=O)C(=O)N[C@@H](CO)C(=O)N[C@@H](Cc1ccc(O)cc1)C(=O)N[C@@H](CCCNC(=N)N)C(=O)N[C@@H](CCCCN)C(=O)N[C@H](C(=O)N[C@@H](CC(C)C)C(=O)NCC(=O)N[C@@H](CCC(N)=O)C(=O)N[C@@H](CC(C)C)C(=O)N[C@@H](CO)C(=O)N[C@@H](C)C(=O)N[C@@H](CCCNC(=N)N)C(=O)N[C@@H](CCCCN)C(=O)N[C@@H](CC(C)C)C(=O)N[C@@H](CC(C)C)C(=O)N[C@@H](CCC(N)=O)C(=O)N[C@@H](CC(=O)O)C(=O)N[C@H](C(=O)N[C@@H](CCSC)C(=O)N[C@@H](CO)C(=O)N[C@@H](CCCNC(=N)N)C(N)=O)[C@@H](C)CC)C(C)C)[C@@H](C)O [GHRH(1-29), hGHRH(1-29)NH2, reference compound]
